Results on 15 compounds are retold here after patent US9233098B2, “Nitrogen-containing fused ring compounds as CRTH2 antagonists” (KBP Biosciences Co., Ltd., priority 2011, dated 2016).

Marks after values point to notes of the source that are not given here.

Assay [1] has as its target T1, CRTH2 receptor (Homo sapiens, UniProt Q9Y5Y4).
T1 construct: host or cells: CHO-K1/CRTH2/Gα15
T1 sequence (Q9Y5Y4 1-395): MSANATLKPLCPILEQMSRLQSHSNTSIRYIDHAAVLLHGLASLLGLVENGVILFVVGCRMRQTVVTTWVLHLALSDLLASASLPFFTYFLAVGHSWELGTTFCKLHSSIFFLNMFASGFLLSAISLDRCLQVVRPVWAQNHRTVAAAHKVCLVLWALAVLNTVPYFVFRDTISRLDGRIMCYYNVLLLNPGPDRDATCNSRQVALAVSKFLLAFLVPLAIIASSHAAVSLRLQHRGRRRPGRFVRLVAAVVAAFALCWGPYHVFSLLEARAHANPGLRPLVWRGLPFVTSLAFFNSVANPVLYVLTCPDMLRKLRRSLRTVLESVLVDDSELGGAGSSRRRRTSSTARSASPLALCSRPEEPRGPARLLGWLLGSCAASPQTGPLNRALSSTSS
In words: Calcium flux FLIPR assay, antagonism against CRTH2 receptor (PGD2 at EC80). It counts as cell-based. The settings on record: CHO-K1/CRTH2/Gα15 cells; blocking activation induced by PGD2 at EC80. How it is done:
Test procedure The test was performed by Nanjing GenScript Biotech Ltd. by calcium flux assay. Test procedure and results are as follows:
Material for test was weighed accurately, and DMSO was added to dissolve the material for test, mixed and homogenized sufficiently, and formulated to 50 mM. And then, it was diluted to 50 μM by using 20 mM HEPES (hydroxyethylpiperazine ethanesulfonic acid) buffer solution at pH 7.4, and the maximum concentration of the compound was 10000 nM. It was further diluted by 3 folds as a series, and consecutively diluted to 10 concentrations, to reserve.
FLIPR Assay (Real Time Fluorescence Imaging Analysis)
In a 384 black microwell plate, 20 μl of cell solution containing 20000 CHO-K1/CRTH2/Gα15 was added, and was incubated at 37° C., 5% CO2 for 18 h. Then, 20 μl of stain in the FLIPR® Calcium 4 assay kit (kit) was added, and 10 μl of compound solution was added. Then, it was incubated at 37° C. for 60 min, and was incubated at room temperature for 15 min. Within 20 seconds, PGD2 HEPES buffer solution of an agonist PGD2 (prostaglandin D2) at the concentration of EC80 was added, and the values of fluorescence of 21-120 seconds were detected.
Data Processing ΔRFU(Relative fluorescence intensity)=maximum fluorescence value of 21-120 seconds−average value of fluorescence value of 1-20 seconds. Inhibition ratio={1−(ΔRFUcompound−ΔRFUbackground)/(ΔRFUagonists control−ΔRFUbackground)}×100 IC50 values of the compounds (i.e. the concentration of the compound for test needed for blocking 50% of the activation of CRTH2 receptor induced by PGD2 at the concentration of EC80) were calculated based on the inhibition ratios. Test Results and Conclusions
On the technique in general: Calcium flux is commonly read through the fluorescence of an indicator in the cells.

For assay [2], the system named is OVA induced BALB/c mice asthma model. Briefly: OVA induced mice asthma model, cell count of pulmonary alveoli irrigating solution (oral administration). It counts as in vivo. The following applies: 30 mg/kg oral bid, Mean ± SEM. As to the method: Test procedure and results are as follows:
After acclimation, female BALB/c mice were divided into a blank control group, a model group and an administration group based on body weight randomly. Animal groups, dosage of administration and volume of administration were as detailed in Table 2. The model group and the administration group were intraperitoneally injected with OVA (ovalbumin) solution (containing […] and 2 mg potassium aluminium sulfate) 0.1 mL/animal to allergize on days 1, 14, the blank control group was injected with PBS (phosphate buffer solution). On days 28, 29, 30, 1% OVA was atomized and inhaled continuously to activate for 30 min, for the blank control group replaced with PBS. On days 27, 28, 29, 30, 31, the animals were administered orally with the pharmaceutical and the solvent. The blank control group was administered with the solvent 2 times every day, 1 h before inhalation of PBS and 7 h after the inhalation; the model group was administered with the solvent 2 times every day, 1 h before the inhalation of OVA for activation and 7 h after activation; the administration group was administered with the pharmaceutical 2 times every day, 1 h before the inhalation of OVA for activation and 7 h after activation. On day 32, the animals were executed, immediately irrigated the lung with 0.5 mL PBS (containing 1% FBS) via bronchus, and the irrigation was repeated 2 times. The irrigating solutions were combined, centrifugated, and the cells were resuspended with 1.5 mL PBS (containing 1% FBS). Cell count of bronchus pulmonary alveoli irrigating solution.

Broadly, the IC50 is the concentration at which inhibition is half-maximal.

On to `CCc1c(Cc2ccc(NC(=O)c3ccc4ccccc4c3)cc2)c2ccccc2n1CC(=O)O` [Compound 7, 2-[3-[4-(2-naphthamido)benzyl]-2-ethyl-1H-indol-1-yl]acetic acid], for which the IC50 in assay [1] came out at 7 nM.
As to `Cc1c(CC(=O)O)c2ccccc2n1Cc1ccc(NC(=O)c2ccc3ccccc3c2)cc1` [Compound 1, 2-[1-[4-(2-naphthamido)benzyl]-2-methyl-1H-indol-3-yl]acetic acid], the IC50 in assay [1] was determined as 2.6 nM.
Regarding `O=C(O)Cn1nc(Cc2ccc(NC(=O)c3ccc(Cl)cc3)cc2)c2ccccc21` [Compound 8, 2-[3-[4-(4-chlorobenzamido)benzyl]-1H-indazol-1-yl]acetic acid], the IC50 in assay [1] came out at 9.7 nM.
For the compound `O=C(O)Cn1nc(Cc2ccc(NC(=O)c3ccc4ccccc4c3)cc2)c2ccccc21` [Compound 5, 2-[3-(4-(2-naphthamido)benzyl)-1H-indazol-1-yl]acetic acid], in assay [1], the IC50 came to 2.3 nM.
Take `O=C(O)Cc1nn(Cc2ccc(NC(=O)c3ccc4ccccc4c3)cc2)c2ncccc12` [Compound 23, 2-[1-[4-(2-naphthamido)benzyl]-1H-pyrazolo[3,4-b]pyridin-3-yl]acetic acid]: in assay [1], the IC50 turned out to be 5.7 nM.
As for `O=C(O)Cc1nn(Cc2ccc(NC(=O)c3ccc(Cl)cc3)cc2)c2ccccc12` [Compound 10, 2-[1-[4-(4-chlorobenzamido)benzyl]-1H-indazol-3-yl]acetic acid], in assay [1], the IC50 worked out at 7.3 nM.
Same read-out and setting: to `O=C(O)Cc1nn(Cc2ccc(NC(=O)c3ccc4ccccc4c3)cc2)c2cc(F)ccc12` [Compound 12, 2-[1-[4-(2-naphthamido)benzyl]-6-fluoro-1H-indazol-3-yl]acetic acid] belongs 14.9 nM; to `Cc1c(Cc2ccc(NC(=O)c3ccc(Cl)cc3)cc2)c2ccccc2n1CC(=O)O` [Compound 6, 2-[3-[4-(4-chlorobenzamido)benzyl]-2-methyl-1H-indol-1-yl]acetic acid], 0.5 nM.
On to `O=C(O)Cc1nn(Cc2ccc(NC(=O)c3ccc4cc(F)ccc4c3)cc2)c2ccccc12` [Compound 13, 2-[1-[4-(6-fluoro-2-naphthamido)benzyl]-1H-indazol-3-yl]acetic acid], for which the IC50 in assay [1] was found to be 4.42 nM.
On the same count and under the same terms, under `Cc1c(Cc2ccc(NC(=O)c3ccc(Cl)c(Cl)c3)cc2)c2ccccc2n1CC(=O)O` [Compound 4, 2-[3-[4-(3,4-dichlorobenzamido)benzyl]-2-methyl-1H-indol-1-yl]acetic acid] stands 2.7 nM; under `Cc1c(Cc2ccc(NC(=O)c3ccc4ccccc4c3)cc2)c2ccccc2n1CC(=O)O` [Compound 2, 2-[3-[4-(2-naphthamido)benzyl]-2-methyl-1H-indol-1-yl]acetic acid], 2.3 nM; under `O=C(O)CCn1c2c(c3ccccc31)C[C@H](NS(=O)(=O)c1ccc(F)cc1)CC2` [Ramatroban, reference compound], 10300 nM.
In the case of `O=C(O)Cc1nn(Cc2ccc(NC(=O)c3ccc4ccccc4c3)cc2)c2ccc(F)cc12` [Compound 11, 2-[1-[4-(2-naphthamido)benzyl]-5-fluoro-1H-indazol-3-yl]acetic acid], the IC50 in assay [1] came out at 1.19 nM.
For `O=C(O)Cc1nn(Cc2ccc(NC(=O)c3ccc4ccccc4c3)cc2)c2ccccc12` [Compound 9, 2-[1-[4-(2-naphthamido)benzyl]-1H-indazol-3-yl]acetic acid], the IC50 in assay [1] came to 3.6 nM. Moreover, in assay [2], the “Acidophilic Cell” value is 35.26 ± 4.53** *10^4/mL, the Lymphocytes was 1.33 ± 0.23 *10^4/mL, the Macrophages is reported as 55.38 ± 5.1** *10^4/mL and the “Neutrophilic Granulocyte” value is listed as 6.66 ± 1.87* *10^4/mL. Besides, the “Total White Cell Count” value in assay [2] is 98.63 ± 4.53** *10^4/mL.
With `Cc1c(Cc2ccc(NC(=O)c3ccc(C(F)(F)F)cc3)cc2)c2ccccc2n1CC(=O)O` [Compound 3, 2-[2-methyl-3-[4-[4-(trifluoromethyl)benzamido]benzyl]-1H-indol-1-yl]acetic acid], in assay [1], the half-inhibitory concentration (IC50) was 6.2 nM.
